# Measurements published in patent US9629834B2, “Medicinal composition for inhibiting formation and/or enlargement of cerebral aneurysm or shrinking same” (KYOTO UNIVERSITY, priority 2013, dated 2017).
# Test system: cerebral aneurysm model
# Test: Inhibitory effect on enlargement of cerebral aneurysm in cerebral aneurysm model
# Format: in vivo, SD rat
# Settings: 0.1 mg/5 mL suspension, forced oral, once a day from Day 7; measured Day 7, Day 28, Day 49; FIG. 8 and FIG. 9
# Experimental: A rat model of cerebral aneurysm was prepared according to the method disclosed on the literature by Hashimoto et al. (Surgical Neurology 1978, Vol. 10, p. 3-8). Namely, 50 mg/kg of pentobarbital was administrated intraperitoneally to a 7-week-old male SD rat, and the left common carotid artery and the left renal artery were ligated by using 10-0 nylon thread under anesthesia (this is referred to as the surgery for inducing cerebral aneurysm). From the day after surgery (Day 1), the rat was reared with being fed a high-salt diet. During a rearing period, the rat was given free access to water. The cerebral aneurysm model was reared with being fed a high-salt diet for 7 days from the day of the surgery so that the model formed cerebral aneurysm. 7 Days after surgery (Week 1, Day 7), the diet for the cerebral aneurysm model was replaced with a normal diet, and forced oral administration of the suspension of Compound 1 at a concentration of 0.1 mg/5 mL to the cerebral aneurysm model was conducted once a day. […] 7 Days after surgery (Week 1, Day 7), 28 days after surgery (Week 4, Day 28), and 49 days after surgery (Week 7, Day 49), the right olfactory artery/anterior cerebral artery bifurcation containing cerebral aneurysm was extirpated and the size of cerebral aneurysm (the maximum diameter and the mean diameter) was measured by similar procedures to Example 1.
smiles,measurement,value
"C[C@H](Oc1ccc(-c2nc(-c3ccc4[nH]cnc4c3)no2)cc1C(F)(F)F)C(F)(F)F.Cl [Compound 1, 5-{5-[3-(trifluoromethyl)-4-{[(2S)-1,1,1-trifluoropropan-2-yl]oxy}phenyl]-1,2,4-oxadiazol-3-yl}-1H-benzimidazole hydrochloride]",enlargement of cerebral aneurysm (maximum diameter and mean diameter),inhibited the enlargement of cerebral aneurysm
